Marks after values point to notes of the source that are not given here.
Columns and labels:
[1] = test system: type 2 diabetic mouse model; assay: Anti-diabetic effect in vivo, type 2 diabetic mouse model (high-fat diet plus STZ injection); parameters: species or system C57BL/6J mice; settings: DM + rosiglitazone 150 μg/kg/day, mean ± SD
Experimental: Eight-week-old male C57BL/6J mice were obtained from BioLASCO Technology (Charles River Taiwan Ltd.). All of the mice received standard animal care under supervision of the Institutional Animal Care and Use Committee of Kaohsiung Medical University, Taiwan. The mice were caged in an air-conditioned animal facility at 23° C. on a 12-h light/dark cycle and were maintained with free access to water and food. Animals were fed either a normal chow diet consisting (as a percentage of total kcal) of 11% fat, 65% carbohydrate, and 24% protein (Maintenance diet 1320, Altromin Spezialfutter GmbH & Co. KG, Germany) or a high-fat diet consisting of 45% fat, 35% carbohydrate, and 20% protein (D12451, Research Diets, Inc., New Brunswick, N.J., USA). After two weeks on either diet, mice were divided into four groups: (i) control (n=7); (ii) high-fat-diet mice with STZ injection (DM; n=5); (iii) high-fat-diet mice with STZ injection plus TS-SCF treatment (DM+TS-SCF; n=6); and (iv) high-fat-diet mice with STZ injection plus rosiglitazone treatment (DM+Rosig; n=4). The mice in groups ii-iv were injected with STZ (45 mg/kg), and both STZ-injected and non-injected animals were kept on their original diets (chow or high-fat) for the duration of the study. TS-SCF (150 mg/kg/day) and rosiglitazone (150 μg/kg/day) treatments via gastric gavage were begun two days after the STZ injection.
Throughout the experiment, body weight and blood glucose from the tail tip were monitored weekly. Blood glucose was detected by the ACCU-CHEK blood glucose meter (Roche Diagnostics, Taipei, Taiwan). Animals were sacrificed after eight weeks of STZ injection and were euthanized by intraperitoneal injection with the anesthetic Zoletil (10 mg/kg) (Virbac, Carros, France). Blood samples were collected from the heart at the time of sacrifice for the measurement of biochemistry data using a Roche Cobas Integra 400 Chemistry Analyzer (Roche Diagnostics, Taipei, Taiwan).
Insulin from plasma were detected by ELISA kits (Crystal Chem, Inc. Downers Grove, USA). The homeostasis model assessment of insulin resistance (HOMA-IR) was calculated using the following formula: fasting blood glucose (mg/dL)×fasting insulin (μU/mL)/405.

3T3-L1 adipocytes = assay: In vitro model for anti-diabetic effect: 24-hour glucose consumption from culture medium of 3T3-L1 adipocytes; type: cell-based; settings: starting glucose 300 mg/dL
Experimental: Adipose tissue is one of the major sites of postprandial glucose uptake (Watson et al., 2007). To speed up the screening of novel anti-diabetic candidate materials from natural products, an in vitro model was established by comparing the 24-hour glucose consumption from the culture medium of 3T3-L1 adipocytes.
The same amount (5×10^5 cells) of 3T3-L1 preadipocytes (BCRC #60159; Bioresource Collection and Research Center, Taiwan) was seeded and cultured in normal glucose (100 mg/dL) DMEM supplemented with 10% FBS, 100 U/mL of penicillin, and 100 μg/mL of streptomycin in a humidified atmosphere of 95% air and 5% CO2 at 37° C. When the cell density reached 100% confluence, 3T3-L1 preadipocytes were induced to differentiate by treating the culture with 450 mg/dL D-glucose, 0.32 μM insulin, 0.5 mM 3-isobutyl-1-methylxanthine and 1 μM dexamethasone for two days. Then, the culture medium of the differentiated adipocytes was changed to DMEM containing 300 mg/dL D-glucose with or without the administration of TSL extracts. After 24 hours, the anti-diabetic activity was determined by measuring the medium glucose concentration using a Roche Cobas Integra 400 Chemistry Analyzer (Roche Diagnostics, Taipei, Taiwan). The coefficient of variation (CV) of the analyzer was 0.62-0.92% within-run and 1.1-1.2% between days. To confirm whether the in vitro model was sufficient to measure the glucose-lowering effect, insulin and rosiglitazone were used as positive controls.
The methods of in vitro model for determination of anti-diabetic effect are the same as the contents described in EXAMPLE 3. To obtain the high to mid-high polar components of TSL, three different extraction methods were used to produce the following extracts, which were previously reported (Liao et al., 2007; Hsieh et al., 2005; Yang et al., 2003). TSLs were (i) extracted by reverse-osmosis of water (1:4 w/v) by boiling for 30 min and then cooling down without further boiling for two hours at room temperature (Liao et al., 2007); (ii) extracted by soaking in 100° C. boiled water (1:10 w/v) three times, each time for 30 min (Hsieh et al., 2005); and (iii) extracted by boiling in 50% v/v alcohol/water for three hours (Yang et al., 2003). Next, the leaves were removed and the remaining liquids were filtered through filter paper (Advantec, Tokyo, Japan). Afterward, the filtrated solutions were concentrated using an evaporator (rotary vacuum evaporator, vv2000; Heidolph, Schwabach, Germany) under reduced pressure and three crude extracts were obtained, which were named TS-WB (i), TS-WS (ii), and TS-E (iii); the yield of each extract was 6.03%, 5.13%, and 8.36%, respectively.

[2] = insulin 3.2×10^−7 to 3.2×10^−5 M

| Creatinine ([1]; plasma) | Molecule | Fasting glucose ([1]; at sacrifice eight weeks after STZ) | Body weight gain [1] [g] | HDL-C [1] [mg/dL] | HOMA-IR [1] | Insulin (fasting plasma) [1] [ng/mL] | LDL-C [1] [mg/dL] | T-CHO (total cholesterol) [1] [mg/dL] | Triglycerol (plasma) [1] | ALT ([1]; plasma) [U/L] | decrease of the glucose concentration in the media (3T3-L1 adipocytes; rosiglitazone 12.5 to 50 μg/mL) [mg/dL] | percentage of glucose consumption (3T3-L1 adipocytes; rosiglitazone 12.5 to 50 μg/mL) | decrease of the glucose concentration in the media (3T3-L1 adipocytes; [2]) [mg/dL] | percentage of glucose consumption (3T3-L1 adipocytes; [2]) |
| --- | --- | --- | --- | --- | --- | --- | --- | --- | --- | --- | --- | --- | --- | --- |
| 0.54 ± 0.18^e mg/dL | CN(CCOc1ccc(CC2SC(=O)NC2=O)cc1)c1ccccn1 (centres unmarked) [rosiglitazone] | 205.00 ± 84.87^b mg/dL | 8.10 ± 1.95 | 126.03 ± 32.17 | 14.29 ± 4.60^b | 0.98 ± 0.77 | 9.81 ± 8.29 | 137.65 ± 32.62 | 64.94 ± 4.82^d mg/dL | 62.00 ± 27.00 | 50 to 80 | 16-27% | – | – |
| – | insulin | – | – | – | – | – | – | – | – | – | – | – | 46 to 57 | 15-18% |

— patent US10668122B2, “Extract of Toona sinensis from supercritical fluid extraction for treating diabetes and metabolic disease, the preparation method and the use thereof” (Metal Industries Research & Development Centre, priority 2009, dated 2020)
